According to ChEMBL document CHEMBL3826972, “Spirostanol saponins from Tacca vietnamensis and their anti-inflammatory activity” (Bioorg Med Chem Lett, 2016):
The source made the active and inactive calls. No cut-off for these calls is given here.

What was measured:
[1] = Cytotoxicity against mouse BV2 cells assessed as cell viability at 80 uM; format: cell-based, BV-2; settings: read-out: Activity
[2] = Cytotoxicity against mouse RAW264.7 cells assessed as cell viability at 80 uM; format: cell-based; settings: read-out: Activity
BV-2 [3] = test: Inhibition of LPS-induced NO production in mouse BV2 cells at 80 uM by Griess assay; format: functional
RAW264.7 [4] = test: Inhibition of LPS-induced NO production in mouse RAW264.7 cells at 80 uM by Griess assay; format: functional
BV-2 [5] = test: Inhibition of LPS-induced NO production in mouse BV2 cells by Griess assay; format: functional, cell-based
RAW264.7 [6] = test: Inhibition of LPS-induced NO production in mouse RAW264.7 cells by Griess assay; format: functional, cell-based

| SMILES | IC50 (BV-2 [5]) [µM] | IC50 (RAW264.7 [6]) [µM] | viability at 80 µM [1] [%] | viability at 80 µM [2] [%] | inhibition at 80 µM (BV-2 [3]) [%] | inhibition at 80 µM (RAW264.7 [4]) [%] | inhibition (BV-2 [3]) | inhibition (RAW264.7 [4]) |
| --- | --- | --- | --- | --- | --- | --- | --- | --- |
| C[C@H]1CC[C@@]2(OC1)O[C@@H]1C[C@@H]3[C@H]4CC=C5C[C@H](O[C@H]6O[C@@H](CO)[C@H](O)[C@@H](O[C@H]7O[C@H](C)[C@@H](O[C@@H]8O[C@H](CO)[C@@H](O)[C@H](O)[C@H]8O)[C@H](O)[C@@H]7O)[C@@H]6O[C@H]6O[C@H](C)[C@@H](O)[C@H](O)[C@@H]6O)CC[C@@]5(C)[C@@H]4CC[C@@]3(C)[C@@H]1[C@H]2C | – | – | < 50 | < 50 | – | – | – | – |
| C[C@@H]1COC2(C[C@@H]1O)O[C@H]1C[C@H]3[C@@H]4CC=C5C[C@@H](O[C@@H]6O[C@H](CO)[C@@H](O)[C@H](O[C@@H]7O[C@@H](C)[C@H](O)[C@@H](O)[C@H]7O)[C@H]6O[C@@H]6O[C@@H](C)[C@H](O)[C@@H](O)[C@H]6O)CC[C@]5(C)[C@H]4CC[C@]3(C)[C@H]1[C@@H]2C (single isomer, unassigned) | > 80 | > 80 | – | – | < 50 | < 50 | – | – |
| C[C@@H]1CO[C@@]2(O[C@@H]3C[C@@H]4[C@H]5CC=C6C[C@H](O[C@@H]7O[C@H](CO)[C@@H](O)[C@H](O[C@@H]8O[C@@H](C)[C@H](O[C@@H]9O[C@H](CO)[C@@H](O)[C@H](O)[C@H]9O)[C@@H](O)[C@H]8O)[C@H]7O[C@@H]7O[C@@H](C)[C@H](O)[C@@H](O)[C@H]7O)CC[C@@]6(C)[C@@H]5CC[C@@]4(C)[C@@H]3[C@H]2C)[C@H](O)[C@@H]1O (stereo in doubt) | 47.3 | 58.2 | – | – | – | – | Active | Active |
| C[C@@H]1CO[C@@]2(O[C@@H]3C[C@@H]4[C@H]5CC=C6C[C@H](O[C@@H]7O[C@H](CO)[C@@H](O)[C@H](O[C@@H]8O[C@@H](C)[C@H](O[C@@H]9O[C@H](CO)[C@@H](O)[C@H](O)[C@H]9O)[C@@H](O)[C@H]8O)[C@H]7O[C@@H]7O[C@@H](C)[C@H](O)[C@@H](O)[C@H]7O)CC[C@@]6(C)[C@@H]5CC[C@@]4(C)[C@@H]3[C@H]2C)[C@H](O)C1 (stereo in doubt) | 43.7 | 37 | – | – | – | – | Active | Active |

More lines, main results first:

| IC50 (BV-2 [5]) [µM] | IC50 (RAW264.7 [6]) [µM] | SMILES | viability at 80 µM [1] [%] | viability at 80 µM [2] [%] | inhibition at 80 µM (BV-2 [3]) [%] | inhibition at 80 µM (RAW264.7 [4]) [%] | inhibition (BV-2 [3]) | inhibition (RAW264.7 [4]) |
| --- | --- | --- | --- | --- | --- | --- | --- | --- |
| > 80 | > 80 | C[C@@H]1O[C@@H](O[C@H]2[C@H](O[C@H]3CC[C@@]4(C)C(=CC[C@H]5[C@@H]6C[C@@H]7OC8(OC[C@](C)(O)C[C@@H]8O)[C@@H](C)[C@@H]7[C@@]6(C)CC[C@@H]54)C3)O[C@H](CO)[C@@H](O)[C@@H]2O[C@@H]2O[C@@H](C)[C@H](O)[C@@H](O)[C@H]2O)[C@H](O)[C@H](O)[C@H]1O (single isomer, unassigned) | – | – | < 50 | < 50 | – | – |
| 52.1 | 60.7 | C[C@@H]1CO[C@]2(O[C@H]3C[C@@H]4[C@@H]5CC=C6C[C@@H](O[C@@H]7O[C@H](CO)[C@@H](O)[C@H](O[C@@H]8O[C@@H](C)[C@H](O)[C@@H](O)[C@H]8O)[C@H]7O[C@@H]7O[C@@H](C)[C@H](O)[C@@H](O)[C@H]7O)CC[C@]6(C)[C@H]5CC[C@]4(C)[C@H]3[C@@H]2C)[C@@H](O)[C@@H]1O (stereo in doubt) | – | – | – | – | Active | Active |
| 4.3 | 5.3 | O=C(/C=C/c1ccc(O)c(O)c1)c1ccc(O)cc1O [BUTEIN] | – | – | – | – | – | – |
| > 80 | > 80 | C[C@@H]1CO[C@]2(C[C@@H]1O)O[C@@H]1C[C@@H]3[C@H]4CC=C5C[C@H](O[C@@H]6O[C@H](CO)[C@@H](O)[C@H](O[C@@H]7O[C@@H](C)[C@H](O[C@@H]8O[C@H](CO)[C@@H](O)[C@H](O)[C@H]8O)[C@@H](O)[C@H]7O)[C@H]6O[C@@H]6O[C@@H](C)[C@H](O)[C@@H](O)[C@H]6O)CC[C@@]5(C)[C@@H]4CC[C@@]3(C)[C@@H]1[C@H]2C (stereo in doubt) | – | – | < 50 | < 50 | – | – |
| > 80 | > 80 | C[C@@H]1O[C@@H](O[C@H]2[C@H](O[C@@H]3CC[C@]4(C)C(=CC[C@@H]5[C@H]6C[C@H]7O[C@@]8(OC[C@](C)(O)C[C@H]8O)[C@H](C)[C@H]7[C@]6(C)CC[C@H]54)C3)O[C@H](CO)[C@@H](O)[C@@H]2O[C@@H]2O[C@@H](C)[C@H](O[C@@H]3O[C@H](CO)[C@@H](O)[C@H](O)[C@H]3O)[C@@H](O)[C@H]2O)[C@H](O)[C@H](O)[C@H]1O (stereo in doubt) | – | – | < 50 | < 50 | – | – |
